For orientation: GI50 means the concentration at which growth is held to half of that of the control. As a reminder, the TGI is the concentration giving total growth inhibition. A higher TGI goes with lower sensitivity of the cells.

Test systems include CAKI-1 renal; DU-145 prostate; HCC-2998 colon; HCT-116 colon; MDA-MB-231 breast; NCI-H226 lung; NCI-H460 lung; NCI/ADR-RES ovarian; OVCAR-3 ovarian; SK-MEL-28 melanoma.
Common to all, as to test: DTP human tumour cell line panel, 48 h

SMILES strings stand for the structures.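 A five-concentration, 48-hour dose response in 96-well plates underlies each endpoint, interpolated linearly between surrounding concentrations. The concentration for 50% growth inhibition is given as GI50. The concentration for full growth arrest is given as TGI.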

In the case of `Cc1ccccc1N=C(c1ccccc1)C1C(=O)c2ccccc2C1=O`, the GI50 with CAKI-1 renal was 21 µM; with DU-145 prostate, 22.4 µM; in the test on HCC-2998 colon, 19.2 µM; with HCT-116 colon it was 2.34 µM; in the test with MDA-MB-231 breast, 21.3 µM; with NCI-H226 lung, 19.4 µM. The GI50 was 6.91 µM in the test on NCI-H460 lung, 8.73 µM in the test with NCI/ADR-RES ovarian, 1.32 µM in the test with OVCAR-3 ovarian and 24.9 µM in the test with SK-MEL-28 melanoma. For the same molecule, the TGI was above 100 µM in the test on CAKI-1 renal; 69.6 µM in the test with DU-145 prostate; 54.2 µM in the test on HCC-2998 colon; 16.2 µM in the test with HCT-116 colon; above 100 µM in the test on MDA-MB-231 breast; 57.5 µM with NCI-H226 lung. For the same molecule, the concentration for total growth inhibition (TGI) is 38 µM in the test with NCI-H460 lung, 47.3 µM with NCI/ADR-RES ovarian, 5.63 µM in the test on OVCAR-3 ovarian and above 100 µM with SK-MEL-28 melanoma.
Take `C=C1C(=O)O[C@H]2[C@H]1CC/C(COC(=O)NCCc1ccc(Br)cc1)=C\CC[C@@]1(C)O[C@@H]21`: the GI50 with CAKI-1 renal is 1.42 µM; with DU-145 prostate it was 0.771 µM; in the test with HCC-2998 colon, 1.71 µM; with HCT-116 colon, 0.477 µM; in the test on MDA-MB-231 breast, 1.42 µM; in the test on NCI-H226 lung, 1.72 µM. Besides, the GI50 was 2.06 µM in the test on NCI-H460 lung, 2.26 µM with NCI/ADR-RES ovarian, 0.984 µM in the test with OVCAR-3 ovarian and 1.47 µM in the test with SK-MEL-28 melanoma. Further, the concentration for total growth inhibition (TGI) with CAKI-1 renal was 2.77 µM; in the test on DU-145 prostate, 2.04 µM; in the test on HCC-2998 colon, 3.37 µM; in the test with HCT-116 colon it was 1.81 µM; with MDA-MB-231 breast, 3.08 µM; with NCI-H226 lung, 3.37 µM. Further, the TGI in the test on NCI-H460 lung came to 4.64 µM; in the test on NCI/ADR-RES ovarian, 6.74 µM; with OVCAR-3 ovarian, 2.27 µM; with SK-MEL-28 melanoma it was 3.12 µM.
Turning to `CN1c2cccc[c]2[Sn]([CH3])([CH3])[c]2ccccc21`, the GI50 with CAKI-1 renal was 0.01 µM; in the test with DU-145 prostate, below 0.0131 µM; with HCC-2998 colon, below 0.01 µM; in the test with HCT-116 colon, below 0.0107 µM; in the test on MDA-MB-231 breast it was below 0.0132 µM; in the test with NCI-H226 lung, below 0.0138 µM. The GI50 in the test on NCI-H460 lung is below 0.01 µM; in the test on NCI/ADR-RES ovarian, 0.0132 µM; with OVCAR-3 ovarian it was below 0.0115 µM; with SK-MEL-28 melanoma, 0.113 µM. In addition, the TGI was below 0.0356 µM with CAKI-1 renal; 0.0988 µM in the test with DU-145 prostate; 0.0247 µM in the test on HCC-2998 colon; below 0.0161 µM in the test on HCT-116 colon; 0.165 µM with MDA-MB-231 breast; 0.132 µM in the test with NCI-H226 lung. Moreover, the TGI was 0.0126 µM in the test on NCI-H460 lung, 0.0491 µM in the test on NCI/ADR-RES ovarian, below 0.0224 µM with OVCAR-3 ovarian and 0.303 µM in the test on SK-MEL-28 melanoma.
Take `CCN1C(=O)N(CC)C2C1NN=c1s/c(=C\c3ccc(Br)cc3)c(=O)n12` (stereo not drawn): the GI50 in the test on CAKI-1 renal is 0.065 µM; in the test on DU-145 prostate, 0.352 µM; in the test with HCC-2998 colon it was 0.349 µM; with HCT-116 colon it was 0.107 µM; in the test on MDA-MB-231 breast, 0.306 µM; in the test on NCI-H460 lung, 0.119 µM. In addition, the GI50 in the test with NCI/ADR-RES ovarian is 0.0626 µM; with OVCAR-3 ovarian it was 0.102 µM; in the test with SK-MEL-28 melanoma, above 53.8 µM. Further, the TGI in the test on CAKI-1 renal is above 100 µM; in the test on DU-145 prostate it was above 100 µM; in the test with HCC-2998 colon, above 100 µM; in the test on HCT-116 colon, above 100 µM; with MDA-MB-231 breast, above 76.6 µM; in the test on NCI-H226 lung, above 100 µM. Further, the TGI with NCI-H460 lung, in the test on NCI/ADR-RES ovarian, in the test with OVCAR-3 ovarian and with SK-MEL-28 melanoma was above 100 µM each time.
`O=[N+]([O-])c1ccc(NC(c2ccccc2)c2ccc3cccnc3c2O)cc1` (stereo not drawn): the GI50 with CAKI-1 renal is 0.312 µM; in the test on DU-145 prostate, 0.483 µM; in the test on HCC-2998 colon, 0.418 µM; in the test on HCT-116 colon, 0.31 µM; in the test on MDA-MB-231 breast, 0.696 µM; with NCI-H226 lung it was 0.505 µM. Besides, the concentration for 50% growth inhibition (GI50) is 0.253 µM in the test on NCI-H460 lung, 0.288 µM in the test with NCI/ADR-RES ovarian, 0.45 µM in the test with OVCAR-3 ovarian and 0.697 µM in the test on SK-MEL-28 melanoma. Also, the TGI in the test on DU-145 prostate was above 100 µM; with HCC-2998 colon it was above 100 µM; in the test on HCT-116 colon, above 55.9 µM; in the test with MDA-MB-231 breast it was above 100 µM; in the test with NCI-H226 lung, 9.19 µM; with NCI-H460 lung, 1.39 µM. Also, the figures for the TGI in the test with NCI/ADR-RES ovarian, with OVCAR-3 ovarian and in the test with SK-MEL-28 melanoma were above 23.4 µM, above 100 µM and above 100 µM, respectively.
Regarding `CN1CCN(CCCn2c3c(sc4ncccc43)c(=O)n3nnc(-c4ccccc4)c23)CC1`, the GI50 in the test on CAKI-1 renal was 1.59 µM; with DU-145 prostate, 1.67 µM; in the test on HCC-2998 colon, 5.12 µM; in the test on HCT-116 colon it was 1.72 µM; with MDA-MB-231 breast, 1.59 µM; in the test with NCI-H226 lung it was 15.1 µM. Besides, the GI50 in the test with NCI-H460 lung was 1.65 µM; in the test with NCI/ADR-RES ovarian, 1.95 µM; with OVCAR-3 ovarian, 1.81 µM; with SK-MEL-28 melanoma it was 18 µM. Besides, the TGI in the test on CAKI-1 renal was 3.19 µM; with DU-145 prostate, 3.24 µM; in the test with HCC-2998 colon, 9.97 µM; in the test with HCT-116 colon, 3.31 µM; in the test on MDA-MB-231 breast it was 3.04 µM; in the test with NCI-H226 lung, 31.9 µM. Further, the concentration for total growth inhibition (TGI) in the test on NCI-H460 lung is 3.37 µM; in the test on NCI/ADR-RES ovarian it was 4.77 µM; with OVCAR-3 ovarian, 3.42 µM; in the test with SK-MEL-28 melanoma it was 32.2 µM.
For the molecule `CC(C)Cc1cc(-c2cccn2C)c(C#N)c(=O)[nH]1`, the GI50 with CAKI-1 renal, in the test on DU-145 prostate, in the test with HCC-2998 colon, with HCT-116 colon, in the test on MDA-MB-231 breast and with NCI-H226 lung was above 100 µM in each case. In addition, the GI50 in the test on NCI-H460 lung, in the test with NCI/ADR-RES ovarian, in the test with OVCAR-3 ovarian and with SK-MEL-28 melanoma was above 100 µM each time. The TGI in the test on CAKI-1 renal, in the test on DU-145 prostate, in the test on HCC-2998 colon, with HCT-116 colon, in the test on MDA-MB-231 breast and in the test on NCI-H226 lung was above 100 µM throughout. In addition, the concentration for total growth inhibition (TGI) in the test on NCI-H460 lung, with NCI/ADR-RES ovarian, in the test with OVCAR-3 ovarian and with SK-MEL-28 melanoma was above 100 µM in each case.
As to `COc1ccc(COc2ccc(Cc3cnc(N)nc3N)cc2OC)cc1`, the GI50 with CAKI-1 renal was above 24.1 µM; in the test with DU-145 prostate it was above 25 µM; in the test with HCC-2998 colon, above 25 µM; in the test with HCT-116 colon it was 14.6 µM; in the test on MDA-MB-231 breast, 23.1 µM; with NCI-H226 lung it was 16 µM. Moreover, the GI50 with NCI-H460 lung was above 22.1 µM; in the test with NCI/ADR-RES ovarian, above 19 µM; in the test with OVCAR-3 ovarian, above 19.4 µM; with SK-MEL-28 melanoma it was 24.8 µM. For the same molecule, the TGI in the test on CAKI-1 renal, with DU-145 prostate, with HCC-2998 colon, in the test on HCT-116 colon, in the test with MDA-MB-231 breast and in the test with NCI-H226 lung was above 25 µM in each case. Moreover, the TGI in the test with NCI-H460 lung, in the test on NCI/ADR-RES ovarian, in the test with OVCAR-3 ovarian and in the test on SK-MEL-28 melanoma was above 25 µM in each case.

Values taken from PubChem BioAssay (NCI).
